Key:
[1] = test system: Diabrotica balteata (Corn root worm); test: Example B1: Diabrotica balteata (Corn root worm), sprayed maize sprouts; format: in vivo; conditions: 96 h, application rate 200 ppm, L2 larvae, 4 days after infestation, read-out: control in at least one of the two categories (mortality or growth inhibition)
Protocol: Example B1: Diabrotica balteata (Corn root worm)
Maize sprouts placed onto an agar layer in 24-well microtiter plates were treated with aqueous test solutions prepared from 10′000 ppm DMSO stock solutions by spraying. After drying, the plates were infested with L2 larvae (6 to 10 per well). The samples were assessed for mortality and growth inhibition in comparison to untreated samples 4 days after infestation.
(§1) The following compounds gave an effect of at least 80% control in at least one of the two categories (mortality or growth inhibition) at an application rate of 200 ppm: […]

[2] = test system: Plutella xylostella (Diamondback Moth); test: Example B13: Plutella xylostella (Diamondback Moth), artificial diet, 96-well; format: in vivo; conditions: 216 h, application rate 500 ppm, eggs/L1 larvae, 9 days after infestation
Protocol: Example B13: Plutella xylostella (Diamondback Moth)
96-well microtiter plates containing artificial diet were treated with aqueous test solutions, prepared from 10′000 ppm DMSO stock solutions, by a liquid handling robot. After drying, eggs (-30 per well) were infested onto a netted lid which was suspended above the diet. The eggs hatch and L1 larvae move down to the diet. The samples were assessed for mortality 9 days after infestation.
The following compounds gave an effect of at least 80% mortality at an application rate of 500 ppm: […]

[3] = test system: Spodoptera littoralis (Egyptian cotton leaf worm); test: Example B10: Spodoptera littoralis (Egyptian cotton leaf worm), uptake by lettuce roots from agar; format: in vivo; conditions: 144 h, test rate 12.5 ppm, eggs, 6 days after infestation, read-out: control in at least one of the three categories (mortality, anti-feeding, or growth inhibition)
Excerpt: Example B10: Spodoptera littoralis (Egyptian cotton leaf worm)
Test compounds were applied by pipette from 10′000 ppm DMSO stock solutions into 24-well plates and mixed with agar. Lettuce seeds were placed onto the agar and the multi well plate was closed by another plate which contained also agar. After 7 days the compound was absorbed by the roots and the lettuce grew into the lid plate. The lettuce leaves were then cut off into the lid plate. Spodoptera eggs were pipetted through a plastic stencil onto a humid gel blotting paper and the lid plate was closed with it. The samples were assessed for mortality, anti-feedant effect and growth inhibition in comparison to untreated samples 6 days after infestation.
The following compounds gave an effect of at least 80% control in at least one of the three categories (mortality, anti-feeding, or growth inhibition) at a test rate of 12.5 ppm: […]

[4] = test system: Spodoptera littoralis (Egyptian cotton leaf worm); test: Example B9: Spodoptera littoralis (Egyptian cotton leaf worm), sprayed cotton leaf discs; format: in vivo; conditions: foliar, 72 h, application rate 200 ppm, L1 larvae, 3 days after infestation, read-out: control in at least one of the three categories (mortality, anti-feedant effect, or growth inhibition)
Protocol: Example B9: Spodoptera littoralis (Egyptian cotton leaf worm)
Cotton leaf discs were placed onto agar in 24-well microtiter plates and sprayed with aqueous test solutions prepared from 10′000 ppm DMSO stock solutions. After drying the leaf discs were infested with five L1 larvae. The samples were assessed for mortality, anti-feeding effect, and growth inhibition in comparison to untreated samples 3 days after infestation. Control of Spodoptera littoralis by a test sample is given when at least one of the categories mortality, anti-feedant effect, and growth inhibition is higher than the untreated sample.

[5] = test system: Plutella xylostella (Diamond back moth); test: Example B5: Plutella xylostella (Diamond back moth), artificial diet, 24-well; format: in vivo; conditions: 192 h, application rate 200 ppm, eggs, 8 days after infestation, read-out: control in at least one of the two categories (mortality or growth inhibition)
Protocol: Example B5: Plutella xylostella (Diamond back moth)
24-well microtiter plates with artificial diet were treated with aqueous test solutions prepared from 10′000 ppm DMSO stock solutions by pipetting. After drying, Plutella eggs were pipetted through a plastic stencil onto a gel blotting paper and the plate was closed with it. The samples were assessed for mortality and growth inhibition in comparison to untreated samples 8 days after infestation.
as §1

[6] = test system: Chilo suppressalis (Striped rice stemborer); test: Example B4: Chilo suppressalis (Striped rice stemborer), artificial diet; format: in vivo; conditions: 144 h, application rate 200 ppm, L2 larvae, 6 days after infestation, read-out: control in at least one of the three categories (mortality, anti-feedant effect, or growth inhibition)
Protocol: Example B4: Chilo suppressalis (Striped rice stemborer) 24-well microtiter plates with artificial diet were treated with aqueous test solutions prepared from 10′000 ppm DMSO stock solutions by pipetting. After drying, the plates were infested with L2 larvae (6-8 per well). The samples were assessed for mortality, anti-feeding effect, and growth inhibition in comparison to untreated samples 6 days after infestation. Control of Chilo suppressalis by a test sample is given when at least one of the categories mortality, anti-feedant effect, and growth inhibition is higher than the untreated sample.

[7] = test system: Frankliniella occidentalis (Western flower thrips); test: Example B3: Frankliniella occidentalis (Western flower thrips): Feeding/contact activity; format: in vivo; conditions: 168 h, application rate 200 ppm, population of mixed ages, 7 days after infestation
Protocol: Example B3: Frankliniella occidentalis (Western flower thrips):Feeding/contact activity
Sunflower leaf discs were placed on agar in 24-well microtiter plates and sprayed with aqueous test solutions prepared from […] stock solutions. After drying the leaf discs were infested with a Frankliniella population of mixed ages. The samples were assessed for mortality 7 days after infestation.

[8] = test system: Euschistus heros (Neotropical Brown Stink Bug); test: Example B2: Euschistus heros (Neotropical Brown Stink Bug), sprayed soybean leaves; format: in vivo; conditions: 120 h, application rate 200 ppm, N2 nymphs, 5 days after infestation, read-out: effect in at least one of the two categories (mortality or growth inhibition)
Protocol: Example B2: Euschistus heros (Neotropical Brown Stink Bug)
Soybean leaves on agar in 24-well microtiter plates were sprayed with aqueous test solutions prepared from 10′000 ppm DMSO stock solutions. After drying the leaves were infested with N2 nymphs. The samples were assessed for mortality and growth inhibition in comparison to untreated samples 5 days after infestation.
The following compounds gave an effect of at least 80% in at least one of the two categories (mortality or growth inhibition) at an application rate of 200 ppm: […]

[9] = test system: Myzus persicae (Green peach aphid); test: Example B12: Myzus persicae (Green Peach Aphid), 96-well sucrose solution; format: in vivo; conditions: 120 h, application rate 50 ppm, 5 days after infestation
Excerpt: Example B12: Myzus persicae (Green Peach Aphid)
Test compounds prepared from 10′000 ppm DMSO stock solutions were applied by a liquid handling robot into 96-well microtiter plates and mixed with a sucrose solution. Parafilm was stretched over the 96-well microtiter plate and a plastic stencil with 96 holes was placed onto the plate. Aphids were sieved into the wells directly onto the Parafilm. The infested plates were closed with a gel blotting card and a second plastic stencil and then turned upside down. The samples were assessed for mortality 5 days after infestation.

[10] = test system: Myzus persicae (Green peach aphid); test: Example B8: Myzus persicae (Green peach aphid): Intrinsic activity; format: in vivo; conditions: 120 h, test rate 12 ppm, 5 days after infestation
Excerpt: Example B8: Myzus persicae (Green peach aphid): Intrinsic activity
Test compounds prepared from 10′000 ppm DMSO stock solutions were applied by pipette into 24-well microtiter plates and mixed with sucrose solution. The plates were closed with a stretched Parafilm. A plastic stencil with 24 holes was placed onto the plate and infested pea seedlings were placed directly on the Parafilm. The infested plate was closed with a gel blotting paper and another plastic stencil and then turned upside down. The samples were assessed for mortality 5 days after infestation.

| Compound | percent control (mortality or growth inhibition) at 200 ppm [1] | mortality at 500 ppm [2] | percent control (mortality, anti-feeding or growth inhibition) at 12.5 ppm [3] | percent control (mortality, anti-feedant effect or growth inhibition) at 200 ppm [4] | percent control (mortality or growth inhibition) at 200 ppm [5] | percent control (mortality, anti-feedant effect or growth inhibition) at 200 ppm [6] | mortality at 200 ppm [7] | percent effect (mortality or growth inhibition) at 200 ppm [8] | mortality at 50 ppm [9] | mortality at 12 ppm [10] | melting point |
| --- | --- | --- | --- | --- | --- | --- | --- | --- | --- | --- | --- |
| C[C@H](NC(=O)c1cc(C(F)(F)F)nc(C2(C#N)CC2)c1)c1ncnn1-c1ccc(C#N)cn1 [P1, 2-(1-cyanocyclopropyl)-N-[(1S)-1-[2-(5-cyano-2-pyridyl)-1,2,4-triazol-3-yl]ethyl]-6-(trifluoromethyl)pyridine-4-carboxamide] | ≥ 80% | ≥ 80% | ≥ 80% | ≥ 80% | ≥ 80% | ≥ 80% | – | – | – | – | – |
| C[C@H](NC(=O)c1cc(C(F)(F)F)cc(S(=O)(=O)C(F)(F)F)c1)c1ncnn1-c1ccc(C#N)cn1 [P2, N-[(1S)-1-[2-(5-cyano-2-pyridyl)-1,2,4-triazol-3-yl]ethyl]-3-(trifluoromethyl)-5-(trifluoromethylsulfonyl) benzamide] | ≥ 80% | ≥ 80% | ≥ 80% | ≥ 80% | ≥ 80% | ≥ 80% | – | – | – | – | – |
| CC(NC(=O)c1cc(C(F)(F)F)cc(S(=O)(=O)C(F)(F)F)c1)c1ncnn1-c1ccc(C#N)cn1 (stereo not drawn) [P5, N-[1-[2-(5-cyano-2-pyridyl)-1,2,4-triazol-3-yl]ethyl]-3-(trifluoromethyl)-5-(trifluoromethylsulfonyl)benzamide] | ≥ 80% | ≥ 80% | ≥ 80% | ≥ 80% | ≥ 80% | ≥ 80% | ≥ 80% | – | – | – | – |
| CC(NC(=O)c1cc(C(F)(F)F)cc(C(F)(F)C2CC2)c1)c1ncnn1-c1ncc(OC(F)F)cn1 (stereo not drawn) [P6, 3-[cyclopropyl(difluoro)methyl]-N-[1-[2-[5-(difluoromethoxy)pyrimidin-2-yl]-1,2,4-triazol-3-yl]ethyl]-5-(trifluoromethyl) benzamide] | ≥ 80% | ≥ 80% | – | ≥ 80% | ≥ 80% | ≥ 80% | – | ≥ 80% | – | – | – |
| C[C@H](NC(=O)c1cc(C(F)(F)F)cc(C(F)(F)C2CC2)c1)c1ncnn1-c1ncc(OCC(F)F)cn1 [P7, 3-[cyclopropyl(difluoro)methyl]-N-[(1S)-1-[2-[5-(2,2-difluoroethoxy)pyrimidin-2-yl]-1,2,4-triazol-3-yl]ethyl]-5-(trifluoromethyl) benzamide] | – | ≥ 80% | – | ≥ 80% | ≥ 80% | ≥ 80% | – | – | ≥ 80% | – | – |
| CC(NC(=O)c1cc(C2CC2)nc(C(F)(F)F)c1)c1ncnn1-c1ncc(OC(F)F)cn1 (stereo not drawn) [P9, 2-cyclopropyl-N-[1-[2-[5-(difluoromethoxy)pyrimidin-2-yl]-1,2,4-triazol-3-yl]ethyl]-6-(trifluoromethyl) pyridine-4-carboxamide] | ≥ 80% | – | – | ≥ 80% | ≥ 80% | ≥ 80% | – | ≥ 80% | – | – | – |
| CC(NC(=O)c1cc(C2CC2C(F)(F)F)cc(C(F)(F)F)c1)c1ncnn1-c1ncc(OCC(F)F)cn1 (stereo not drawn) [P12] | ≥ 80% | – | – | ≥ 80% | ≥ 80% | ≥ 80% | – | ≥ 80% | – | – | – |
| CC(NC(=O)c1cc(C2CC2)cc(C(F)(F)F)c1)c1ncnn1-c1ncc(OC(F)F)cn1 (stereo not drawn) [P21, 3-cyclopropyl-N-[1-[2-[5-(difluoromethoxy)pyrimidin-2-yl]-1,2,4-triazol-3-yl]ethyl]-5-(trifluoromethyl) benzamide] | ≥ 80% | – | – | ≥ 80% | ≥ 80% | ≥ 80% | – | ≥ 80% | – | – | – |
| CC(NC(=O)c1cc(C2CC2)nc(C(F)(F)F)c1)c1ncnn1-c1ncc(OCC(F)F)cn1 (stereo not drawn) [P22, 2-cyclopropyl-N-[1-[2-[5-(2,2-difluoroethoxy)pyrimidin-2-yl]-1,2,4-triazol-3-yl]ethyl]-6-(trifluoromethyl)pyridine-4-carboxamide] | ≥ 80% | – | – | ≥ 80% | ≥ 80% | ≥ 80% | – | – | – | ≥ 80% | – |
| CC(NC(=O)c1cc(C(F)(F)F)cc(C(F)(F)C2CC2)c1)c1ncnn1-c1ccc(OCC(F)F)cn1 (stereo not drawn) [P36, 3-[cyclopropyl(difluoro)methyl]-N-[1-[2-[5-(2,2-difluoroethoxy)-2-pyridyl]-1,2,4-triazol-3-yl]ethyl]-5-(trifluoromethyl) benzamide] | – | – | – | – | – | – | – | – | – | – | 105 to 110 °C |
